Data from ChEMBL document CHEMBL1201862, “PubChem BioAssay data set” (2004).
Values joined by “and” are separate entries in the source; they are usually repeats but may differ in a detail not shown here. Equal values may be shown once.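 Each compound was tested at five concentrations against cells in 96-well plates for 48 hours. GI50 marks 50% less growth.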 Active and inactive are the calls of the source. Rule as the data show it: active = GI50 up to about 1.1 µM and inactive = higher.

Columns and labels:
Test in all cases: NCI tumour cell line growth inhibition, 48 h
HOP-92 = tested on: HOP-92
LOX IMVI = tested on: LOX IMVI
MOLT-4 = tested on: MOLT-4
Malme-3M = tested on: Malme-3M
M14 = tested on: M14
SNB-19 = tested on: SNB-19
COLO 205 = tested on: COLO 205
KM12 = tested on: KM12
MDA-MB-231 = tested on: MDA-MB-231
T47D = tested on: T47D
SK-MEL-28 = tested on: SK-MEL-28
MCF7 = tested on: MCF7
SF-295 = tested on: SF-295
NCI-H23 = tested on: NCI-H23
HOP-62 = tested on: HOP-62
SW-620 = tested on: SW-620
HL-60 = tested on: HL-60
SNB-75 = tested on: SNB-75
NCI-H522 = tested on: NCI-H522

Row | Structure (SMILES) | GI50 (HOP-92) | GI50 (LOX IMVI) | GI50 (MOLT-4) | GI50 (Malme-3M) | GI50 (M14) | GI50 (SNB-19) | GI50 (COLO 205) | GI50 (KM12) | GI50 (MDA-MB-231) | GI50 (T47D) | GI50 (SK-MEL-28) | GI50 (MCF7) | GI50 (SF-295) | GI50 (NCI-H23) | GI50 (HOP-62) | GI50 (SW-620) | GI50 (HL-60) | GI50 (SNB-75) | GI50 (NCI-H522)
1 | O/N=C1/CCCCCC1NO (configuration not stated) | > 100 µM (inactive) | > 100 µM (inactive) | > 100 µM (inactive) | > 100 µM (inactive) | > 100 µM (inactive) | > 100 µM (inactive) | > 100 µM (inactive) | > 100 µM (inactive) | > 100 µM (inactive) | > 100 µM (inactive) | > 100 µM (inactive) | > 100 µM (inactive) | > 100 µM (inactive) | > 100 µM (inactive) | > 100 µM (inactive) | > 100 µM (inactive) | – | – | –
2 | CC[C@]12C=CCN3CCC4(c5cc([C@@]6(C(=O)OC)CC7CN(CCc8c6[nH]c6ccccc86)CC6CCCCC67)c(OC)cc5N(C)C4[C@](O)(C(=O)OC)C1OC(C)=O)[C@@H]32 (some centres not stated) | < 0.01 µM (active) | < 0.01 µM (active) | < 0.01 µM (active) | < 0.01 µM (active) | < 0.01 µM (active) | < 0.01 µM (active) | < 0.01 µM (active) | < 0.01 µM (active) | < 0.01 µM (active) | – | – | < 0.01 µM (active) | < 0.01 µM (active) | < 0.01 µM (active) | < 0.01 µM (active) | < 0.01 µM (active) | < 0.01 µM (active) | < 0.01 µM (active) | < 0.01 µM (active)
3 | O=CCOCc1cc2c(cc1Br)OCO2 | 43.9 µM (inactive) | 19.6 µM (inactive) | 30.1 µM (inactive) | – | 20.3 µM (inactive) | – | > 100 µM (inactive) | 33 µM (inactive) | 19.7 µM (inactive) | 21 µM (inactive) | 37.9 µM (inactive) | 20.3 µM (inactive) | > 100 µM (inactive) | 11.8 µM (inactive) | > 100 µM (inactive) | 20.9 µM (inactive) | 20.9 µM (inactive) | 48.9 µM (inactive) | 15.7 µM (inactive)
4 | COc1ccc(/C=N/NC(=O)CSc2nc(-c3ccccc3)c(-c3ccccc3)[nH]2)cc1OC | 42.1 µM (inactive) | 20.5 µM (inactive) | 16 µM (inactive) | 19.5 µM (inactive) | 17.7 µM (inactive) | 34.5 µM (inactive) | 21.2 µM (inactive) | 17.2 µM (inactive) | – | – | 41 µM (inactive) | – | 24.2 µM (inactive) | 30.3 µM (inactive) | 39.3 µM (inactive) | 29.9 µM (inactive) | 20.3 µM (inactive) | 29.9 µM (inactive) | 19.7 µM (inactive)
5 | N#C/C(=C\c1ccc(O)c(O)c1)C(=O)NC1CCC(CC2CCC(NC(=O)/C(C#N)=C/c3ccc(O)c(O)c3)CC2)CC1 (configuration not stated) | 1.55 µM (inactive) | 0.356 µM (active) | 0.743 µM (active) | 3.65 µM (inactive) | 1.85 µM (inactive) | 3.52 µM (inactive) | 1.12 µM (inactive) | 1.47 µM (inactive) | – | – | 3.22 µM (inactive) | – | 1.3 µM (inactive) | 1.3 µM (inactive) | 1.89 µM (inactive) | 0.465 µM (active) | 0.902 µM (active) | 0.263 µM (active) | 0.437 µM (active)
6 | C[n+]1c(-c2ccc(/C=N/Nc3ccnc(N/N=C/c4ccc(-c5cn6ccccc6[n+]5C)cc4)n3)cc2)cn2ccccc21 | – | – | > 100 µM (inactive) | – | 31.2 µM (inactive) | 42.8 µM (inactive) | 94 µM (inactive) | 32.6 µM (inactive) | > 100 µM (inactive) | 54.8 µM (inactive) | 34.7 µM (inactive) | – | 17.9 µM (inactive) | – | 43.2 µM (inactive) | 71.1 µM (inactive) | 24.5 µM (inactive) | 34.7 µM (inactive) | > 100 µM (inactive)
7 | CN(C)C(c1ccccc1)C1COC2Cc3ccccc3C1O2 (configuration not stated) | 58.1 µM (inactive) | 62.2 µM (inactive) and 64.4 µM (inactive) | > 100 µM (inactive) and 54 µM (inactive) | > 100 µM (inactive) and 60.7 µM (inactive) | > 100 µM (inactive) | > 100 µM (inactive) | > 100 µM (inactive) | > 100 µM (inactive) | > 100 µM (inactive) | > 100 µM (inactive) | > 100 µM (inactive) | – | > 100 µM (inactive) | > 100 µM (inactive) | > 100 µM (inactive) | – | 65 µM (inactive) and 46.8 µM (inactive) | 24.9 µM (inactive) and 15.5 µM (inactive) | > 100 µM (inactive)
8 | CC(C)(Oc1ccccc1)C(=O)Sc1c(-c2ccccc2)c(=O)n(-c2ccccc2)c(=S)n1-c1ccccc1 | > 100 µM (inactive) | 49.5 µM (inactive) | 36.4 µM (inactive) | 95.5 µM (inactive) | 27 µM (inactive) | 47.2 µM (inactive) | 39.8 µM (inactive) | 31.8 µM (inactive) | 28.8 µM (inactive) | 64.3 µM (inactive) | 49.7 µM (inactive) | 46.6 µM (inactive) | 59.8 µM (inactive) | > 100 µM (inactive) | 22 µM (inactive) | 88.3 µM (inactive) | 25.9 µM (inactive) | > 100 µM (inactive) | 21.9 µM (inactive)
9 | CCOC(=O)c1cccnc1C(OC(C)=O)OC(C)=O | > 100 µM (inactive) | 70 µM (inactive) | > 100 µM (inactive) | > 100 µM (inactive) | > 100 µM (inactive) | > 100 µM (inactive) | > 100 µM (inactive) | > 100 µM (inactive) | – | – | > 100 µM (inactive) | – | 83.4 µM (inactive) | > 100 µM (inactive) | > 100 µM (inactive) | > 100 µM (inactive) | 49.9 µM (inactive) | > 100 µM (inactive) | > 100 µM (inactive)
10 | O=[PH](O)c1ccccn1 | > 100 µM (inactive) | > 100 µM (inactive) | > 100 µM (inactive) | > 100 µM (inactive) | > 100 µM (inactive) | > 100 µM (inactive) | > 100 µM (inactive) | > 100 µM (inactive) | – | – | > 100 µM (inactive) | – | > 100 µM (inactive) | > 100 µM (inactive) | > 100 µM (inactive) | > 100 µM (inactive) | > 100 µM (inactive) | > 100 µM (inactive) | > 100 µM (inactive)
11 | C/C=C/C1=C(Cl)C(=O)[C@@H](Cl)[C@@]1(O)C(=O)OC [(+)-CRYPTOSPORIPSIN] | 2.25 µM (inactive) | 2.24 µM (inactive) | 3.66 µM (inactive) | 2 µM (inactive) | 3.13 µM (inactive) | 3.8 µM (inactive) | 1.5 µM (inactive) | 7.13 µM (inactive) | – | – | 7.66 µM (inactive) | 1.48 µM (inactive) | 11.2 µM (inactive) | 4.08 µM (inactive) | 1.52 µM (inactive) | 1.06 µM (active) | 1.7 µM (inactive) | 7.38 µM (inactive) | 1.06 µM (active)
12 | Nc1nc(Cl)cc(OCC2(CO)CCCCC2)n1 | 40.7 µM (inactive) | > 100 µM (inactive) | > 100 µM (inactive) | > 100 µM (inactive) | – | > 100 µM (inactive) | – | – | – | – | > 100 µM (inactive) | 50.5 µM (inactive) | > 100 µM (inactive) | > 100 µM (inactive) | > 100 µM (inactive) | > 100 µM (inactive) | 85.7 µM (inactive) | 66.1 µM (inactive) | 53.1 µM (inactive)
13 | COc1ccc([C@@]23CCC(=O)C[C@@H]2N(C)CC3)cc1OC | > 100 µM (inactive) | > 100 µM (inactive) | > 100 µM (inactive) | > 100 µM (inactive) | > 100 µM (inactive) | > 100 µM (inactive) | > 100 µM (inactive) | > 100 µM (inactive) | > 100 µM (inactive) | > 100 µM (inactive) | > 100 µM (inactive) | > 100 µM (inactive) | > 100 µM (inactive) | > 100 µM (inactive) | > 100 µM (inactive) | > 100 µM (inactive) | > 100 µM (inactive) | > 100 µM (inactive) | > 100 µM (inactive)
14 | CC1OC(OCC2OC(Oc3c(-c4ccc(O)cc4)oc4cc(O)cc(O)c4c3=O)C(OC3OCC(O)(CO)C3O)C(O)C2O)C(O)C(O)C1O (configuration not stated) | > 100 µM (inactive) | 51.9 µM (inactive) | > 100 µM (inactive) | > 100 µM (inactive) | > 100 µM (inactive) | > 100 µM (inactive) | 38.1 µM (inactive) | > 100 µM (inactive) | – | – | > 100 µM (inactive) | – | > 100 µM (inactive) | > 100 µM (inactive) | > 100 µM (inactive) | 79.1 µM (inactive) | 21.2 µM (inactive) | > 100 µM (inactive) | > 100 µM (inactive)
15 | Cc1ccc(S(=O)(=O)N/N=C2\C=C[C@]3(CC2)C(=O)N(C)c2ccccc23)cc1 | > 100 µM (inactive) | > 100 µM (inactive) | > 100 µM (inactive) | – | > 100 µM (inactive) | > 100 µM (inactive) | > 100 µM (inactive) | > 100 µM (inactive) | > 100 µM (inactive) | > 100 µM (inactive) | > 100 µM (inactive) | > 100 µM (inactive) | > 100 µM (inactive) | > 100 µM (inactive) | > 100 µM (inactive) | > 100 µM (inactive) | > 100 µM (inactive) | > 100 µM (inactive) | –
16 | O=C1C(Cl)=C(N2CCSCC2)C(=O)c2c(O)ccc(O)c21 | 1.02 µM (active) | 0.186 µM (active) | 0.641 µM (active) | 0.382 µM (active) | 0.33 µM (active) | – | 0.1 µM (active) | 0.38 µM (active) | 0.308 µM (active) | 0.662 µM (active) | 0.857 µM (active) | – | 0.1 µM (active) | 0.273 µM (active) | – | 0.258 µM (active) | – | 1 µM (active) | 0.312 µM (active)
